Test results published in publication PMC11650849, “Brain endothelial permeability, transport, and flow assessed over 10 orders of magnitude using the in situ brain perfusion technique” (Fluids and Barriers of the CNS, 2024).
Where two headings read alike, the source gives them in different places.

How the values were obtained:
in vivo = details: rat, pH 7.4
[1] = ref Fenstermacher (papers of the 1990s and 2000s); cited from earlier work
[2] = cited from earlier work
[3] = rat in vivo measurements; cited from earlier work
[4] = Neutral fraction at pH 7.4 calculated from pKa; assay type: physicochemical
[5] = rat
[6] = rat; remark: listed apart in the source
[7] = rat, in vivo; cited from earlier work
[8] = cited from earlier work; for Log Poct: octanol partition coefficient
[9] = Octanol/water partition and distribution coefficients; details: for Log Doct 7.4: octanol distribution coefficient, pH 7.4; for Log Poct: octanol partition coefficient
Choline transporter = details: facilitated nutrients
GLUT1 = target: T1, GLUT1 (Rattus norvegicus, UniProt P11167); test: In situ brain perfusion, facilitated nutrient transport by GLUT1; assay type: in vivo; details: facilitated nutrients
T1 construct: from tissue; host or cells: brain vascular endothelium (BBB) of the in situ perfused brain
T1 sequence (P11167 1-492): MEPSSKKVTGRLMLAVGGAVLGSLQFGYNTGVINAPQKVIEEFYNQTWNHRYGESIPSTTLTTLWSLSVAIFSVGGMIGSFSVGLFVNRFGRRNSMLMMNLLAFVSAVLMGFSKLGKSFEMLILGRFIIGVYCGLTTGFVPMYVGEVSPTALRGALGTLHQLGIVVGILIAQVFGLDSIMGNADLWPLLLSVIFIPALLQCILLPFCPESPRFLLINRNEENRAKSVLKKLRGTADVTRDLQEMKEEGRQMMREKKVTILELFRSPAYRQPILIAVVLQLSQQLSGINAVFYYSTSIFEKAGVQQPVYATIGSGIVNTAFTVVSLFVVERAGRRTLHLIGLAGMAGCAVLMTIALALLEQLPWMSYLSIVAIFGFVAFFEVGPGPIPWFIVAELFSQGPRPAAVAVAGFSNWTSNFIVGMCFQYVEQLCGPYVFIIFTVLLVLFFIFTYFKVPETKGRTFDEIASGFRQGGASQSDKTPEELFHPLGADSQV

[10] = pH 7.4
[11] = ref Chou and Rowland [106]; cited from earlier work
Lat-1 = Lat-1 (Rattus norvegicus, UniProt Q63016)
MCT8 L-T3 Transporter = MCT8 L-T3 Transporter (Rattus norvegicus, UniProt Q8K1P8)
MAT1 = target: T2, MAT1 (Rattus norvegicus, UniProt P53987); details: facilitated nutrients, MAT1, S 30 s
T2 sequence (P53987 1-494): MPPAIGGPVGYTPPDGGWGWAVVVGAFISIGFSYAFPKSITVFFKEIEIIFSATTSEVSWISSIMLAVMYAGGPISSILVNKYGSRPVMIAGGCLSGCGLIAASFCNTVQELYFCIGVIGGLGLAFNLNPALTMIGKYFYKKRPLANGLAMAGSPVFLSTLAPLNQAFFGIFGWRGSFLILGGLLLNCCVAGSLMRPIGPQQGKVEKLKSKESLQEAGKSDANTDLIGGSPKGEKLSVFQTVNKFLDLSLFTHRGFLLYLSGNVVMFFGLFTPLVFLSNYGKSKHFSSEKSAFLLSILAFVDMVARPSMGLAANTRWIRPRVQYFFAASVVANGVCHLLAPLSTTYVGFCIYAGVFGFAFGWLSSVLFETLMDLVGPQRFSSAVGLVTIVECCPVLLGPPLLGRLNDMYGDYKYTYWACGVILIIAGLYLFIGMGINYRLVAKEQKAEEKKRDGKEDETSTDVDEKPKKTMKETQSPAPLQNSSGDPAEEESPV

[12] = neutral fraction at perfusion fluid pH 7.40, calculated from pKa
[13] = ref Hansch et al. [123], Avdeef [46] or other sources
[14] = LAT1 substrates, tracer concentration
[15] = LAT1 substrates, tracer concentration, perfusion 15-30 s

Sequence of Lat-1 (Q63016 whole entry): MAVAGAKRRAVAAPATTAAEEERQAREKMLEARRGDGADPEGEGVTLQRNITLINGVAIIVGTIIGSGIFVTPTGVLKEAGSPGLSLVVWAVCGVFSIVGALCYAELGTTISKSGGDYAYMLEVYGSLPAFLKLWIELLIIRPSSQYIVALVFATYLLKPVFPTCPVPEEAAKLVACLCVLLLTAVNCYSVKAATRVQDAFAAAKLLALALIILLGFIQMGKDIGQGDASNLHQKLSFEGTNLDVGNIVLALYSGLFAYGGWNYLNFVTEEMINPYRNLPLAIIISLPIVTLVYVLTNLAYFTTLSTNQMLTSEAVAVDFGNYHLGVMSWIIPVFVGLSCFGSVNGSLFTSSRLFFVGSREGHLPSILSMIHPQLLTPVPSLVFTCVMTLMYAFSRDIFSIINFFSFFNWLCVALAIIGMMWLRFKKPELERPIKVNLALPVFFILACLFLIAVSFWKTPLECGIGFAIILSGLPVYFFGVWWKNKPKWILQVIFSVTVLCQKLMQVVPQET
Sequence of Lat-1 (Q794F9 whole entry partner): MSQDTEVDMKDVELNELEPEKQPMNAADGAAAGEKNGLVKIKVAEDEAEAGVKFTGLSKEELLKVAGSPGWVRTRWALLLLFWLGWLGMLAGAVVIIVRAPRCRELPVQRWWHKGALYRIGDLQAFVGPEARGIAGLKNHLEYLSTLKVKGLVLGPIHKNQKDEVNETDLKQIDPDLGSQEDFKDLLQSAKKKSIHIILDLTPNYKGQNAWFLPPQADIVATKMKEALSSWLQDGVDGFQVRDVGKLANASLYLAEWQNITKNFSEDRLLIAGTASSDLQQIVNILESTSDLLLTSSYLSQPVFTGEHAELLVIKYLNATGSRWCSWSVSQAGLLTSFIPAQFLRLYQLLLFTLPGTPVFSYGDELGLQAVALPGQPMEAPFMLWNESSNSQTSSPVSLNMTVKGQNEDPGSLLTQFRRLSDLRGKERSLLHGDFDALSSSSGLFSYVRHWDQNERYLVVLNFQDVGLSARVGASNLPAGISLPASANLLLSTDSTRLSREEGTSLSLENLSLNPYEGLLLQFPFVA
Sequence of MCT8 L-T3 Transporter (Q8K1P8 whole entry): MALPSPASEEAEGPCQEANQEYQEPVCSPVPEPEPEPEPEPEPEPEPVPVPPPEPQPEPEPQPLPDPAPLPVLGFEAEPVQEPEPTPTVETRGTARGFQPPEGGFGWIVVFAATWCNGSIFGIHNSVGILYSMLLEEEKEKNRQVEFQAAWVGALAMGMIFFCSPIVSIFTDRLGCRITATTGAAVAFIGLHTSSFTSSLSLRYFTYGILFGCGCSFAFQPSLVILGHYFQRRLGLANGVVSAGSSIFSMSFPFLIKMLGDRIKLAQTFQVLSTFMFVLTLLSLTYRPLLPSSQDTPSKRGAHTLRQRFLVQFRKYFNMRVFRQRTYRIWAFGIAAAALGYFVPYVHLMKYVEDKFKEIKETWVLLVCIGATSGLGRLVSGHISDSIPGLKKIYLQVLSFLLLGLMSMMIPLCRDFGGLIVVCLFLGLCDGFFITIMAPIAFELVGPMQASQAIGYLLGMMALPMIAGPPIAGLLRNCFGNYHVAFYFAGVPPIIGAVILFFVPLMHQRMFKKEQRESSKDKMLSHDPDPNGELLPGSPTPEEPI

Compound: Cc1cc(=O)n(-c2ccccc2)n1C [Antipyrine]
- half-life (in vivo): 1 min
- brain vascular PS [1]: 0.02 to 0.025 mL/s/g
- Brain Kin (calculated at brain blood flow […] and rat serum fu): 0.0143 mL/s/g
- Extraction (unbound) (calculated at brain blood flow […], free drug): 62.7%
- Brain vascular extraction (total) (calculated at brain blood flow […], with rat serum fu): 59.7%
- fu,.p ([2]; rat in vivo measurements): 0.92
- Brain Vu,br [3]: 1.25 mL/g
- fn (%) [4, 12]: 100%
- half-life ([5]; brain): 0.93 min

Compound: CCC1(CC)C(=O)NC(=O)NC1=O [Barbital]
- fu,.p ([2]; rat in vivo measurements): 0.985
- Log Pc ([6]; in vivo, pH 7.4): −4.42
- Log PoS ([6]; in vivo, pH 7.4): −2.32
- Pc ([6]; in vivo, pH 7.4): 38.1 ×10⁻⁶ cm/s
- PcS ([6]; in vivo, pH 7.4): 0.0038 mL/s/g
- PoS ([6]; in vivo, pH 7.4): 0.00477 mL/s/g
- Log Po ([6]; in vivo, pH 7.4): −4.32
- Po ([6]; in vivo, pH 7.4): 47.7 ×10⁻⁶ cm/s
- Brain Equilibration t1/2, Measured [7]: 3.27 min
- fn (%) [4, 12]: 79.9%
- Log Poct [8, 13]: 0.65
- Log Doct pH=7.4 [8, 13]: 0.64
- half-life [5]: 3.63 min
- half-life ([5]; plasma): 3.6 min

Compound: C[N+](C)(C)CCO [Choline]
- Log Doct 7.4 [9]: −3.70
- Log PS (Choline transporter): −2.89
- PS (Choline transporter; S 20 s): 0.0013 mL/s/g

Compound: OC[C@H]1OC(O)[C@H](O)[C@@H](O)[C@@H]1O (stereo partly drawn) [D-Glucose]
- Log PS (GLUT1; GLUT1): −2.16
- PS (GLUT1; GLUT1, S 16 s): 0.00694 mL/s/g
- Log Doct 7.4 [10]: −1.88

Compound: CN1C(=O)CN=C(c2ccccc2)c2cc(Cl)ccc21 [Diazepam]
- PS for liver membrane [11]: 0.4 mL/s/g
- fn (%) ([4]; pH 7.4): 100%

Compound: OCCO [Ethylene glycol]
- Brain Equilibration t1/2, Calculated (plasma): 21 min
- fu,.p ([2]; rat): 1.00
- E of permeability markers [6]: 2–4%
- BBB PS / PoS over the flow range ([6]; in vivo): 4 - 7x 10^-4
- Log Pc ([6]; in vivo): −5.24
- Log PoS ([6]; in vivo): −3.24
- PS Average used for normalization ([6]; in vivo): 0.0006 mL/s/g
- Pc ([6]; in vivo): 5.69 ×10⁻⁶ cm/s
- PcS ([6]; in vivo): 0.00057 mL/s/g
- PoS ([6]; in vivo): 0.000569 mL/s/g
- PoS, flow-corrected ([6]; in vivo): 3–6 10^–4 mL/s/g
- Log Po ([6]; in vivo): −5.24
- Po ([6]; in vivo): 5.69 ×10⁻⁶ cm/s
- Brain Equilibration t1/2, Measured [7]: 17 min
- fn (%) ([4]; pH 7.4): 100%
- Log Doct pH=7.4 [8]: −1.36

Compound: CNC[C@H](N)C(=O)O [L-BMAA]
- LogPS (Lat-1; [14]): −3.27
- PS (Lat-1; [15]): 0.000542 mL/s/g
- Log Doct 7.4 [9]: −3.4
- Log Poct [9]: −0.85

Compound: N[C@@H](Cc1ccc(O)c(O)c1)C(=O)O [L-DOPA]
- LogPS (Lat-1; [14]): −1.99
- PS (Lat-1; [15]): 0.0102 mL/s/g
- Log Doct 7.4 [9]: −2.7
- Log Poct [9]: −0.22

Compound: CC(C)C[C@H](N)C(=O)O [L-Leucine]
- LogPS (Lat-1; [14]): −1.45
- PS (Lat-1; [15]): 0.0354 mL/s/g
- Log Doct 7.4 [9]: 0.73

Compound: N[C@@H](Cc1ccccc1)C(=O)O [L-Phenylalanine]
- LogPS (Lat-1; [14]): −1.108
- PS (Lat-1; [15]): 0.078 mL/s/g
- Log Doct 7.4 [9]: −1.46
- Log Poct [9]: 1.110

Compound: N[C@@H](Cc1cc(I)c(Oc2ccc(O)c(I)c2)c(I)c1)C(=O)O [L-T3]
- PS (MCT8 L-T3 Transporter): 0.0146 mL/s/g

Compound: CCCC(C)C1(CC)C(=O)NC(=O)NC1=O (centres unmarked) [Pentobarbital]
- half-life (in vivo): 1.15 min
- fu,.p ([2]; rat in vivo measurements): 0.60
- Log Pc ([6]; in vivo, pH 7.4): −3.35
- Log PoS ([6]; in vivo, pH 7.4): −1.22
- Pc ([6]; in vivo, pH 7.4): 450 ×10⁻⁶ cm/s
- PcS ([6]; in vivo, pH 7.4): 0.045 mL/s/g
- PoS ([6]; in vivo, pH 7.4): 0.0599 mL/s/g
- Log Po ([6]; in vivo, pH 7.4): −3.22
- Po ([6]; in vivo, pH 7.4): 599 ×10⁻⁶ cm/s
- fn (%) [4, 12]: 75.1%
- Log Poct [8, 13]: 2.08
- Log Doct pH=7.4 [8, 13]: 2.01
- half-life [5]: 1.44 min
- half-life ([5]; plasma): 1.4 min

Compound: CC(C)C[C@H](CN)CC(=O)O [Pregabalin]
- LogPS (Lat-1; rat, in vivo, pH 7.4): −3.01
- PS (Lat-1; rat, in vivo, pH 7.4): 0.000976 mL/s/g
- Log Doct 7.4 [9]: −1.75
- Log Poct [9]: 1.12

Compound: L-Lactate
- Log Doct 7.4 [9]: −0.70
- PS (MAT1): 0.00125 mL/s/g
